Test system: zebrafish larvae, 120 hpf
Assay: Larval photomotor response (LPR) assay after vial exposure
Format: in vivo, Danio rerio
Settings: LPR
How it was run: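 Embryos bleached at 6 hpf, exposed in sealed glass vials (8 per vial, DMSO stock at 200x) with rotation overnight at 28 °C, then singulated into chemical-free medium and kept dark at 28 °C. Movement tracked minutes 6–24 at 120 hpf, 6 s bins log-normalized to AUC; LEL per light/dark period from first cycle; nominal water concentrations, dead/malformed larvae excluded.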

[1] = period dark, round 1, conc 3.125
[2] = period dark, round 1, conc 6.25
[3] = period dark, round 1, conc 12.5
[4] = period dark, round 2, conc 37.5
[5] = period light, round 1, conc 3.125
[6] = period light, round 1, conc 6.25
[7] = period light, round 1, conc 12.5
[8] = period light, round 2, conc 37.5

Q: How did the fold_change [1] turn out when `Cc1cccc2c(C)cccc12` [1,5-dimethylnaphthalene] was run?
A: 0.2385

Q: And the fold_change [2]?
A: 0.04355

Q: What about the fold_change [3] of the same compound?
A: 0.0001175

Q: What about the fold_change (period dark, round 1, conc 25) of the same compound?
A: -0.1166

Q: And the fold_change (period dark, round 2, conc 30)?
A: -0.72

Q: And the fold_change [4]?
A: -0.6231

Q: What about the fold_change [5] of the same compound?
A: 0.2204

Q: What about the fold_change [6] of the same compound?
A: 0.1087

Q: What about the fold_change [7] of the same compound?
A: 0.8122

Q: And the fold_change (period light, round 1, conc 25)?
A: 0.799

Q: What about the fold_change (period light, round 2, conc 30) of the same compound?
A: 0.3918

Q: And the fold_change [8]?
A: 0.2643

Q: Which results are given for `Cc1ccc2cccc(C)c2c1` [1,7-dimethylnaphthalene]?
A: fold_change [1]: -0.2153; fold_change [2]: -0.5415; fold_change [3]: -0.6708; fold_change (period dark, round 1, conc 25): -0.6391; fold_change [5]: -0.5634; fold_change [6]: -0.1569; fold_change [7]: -0.05053; fold_change (period light, round 1, conc 25): 0.1308

Q: Which fold_change [1] does the source give for `Cc1cc(C)c2c(C)cccc2c1` [2,4,5-trimethylnaphthalene] here?
A: -0.1188

Q: And the fold_change [2]?
A: -0.09148

Q: What about the fold_change [3] of the same compound?
A: -0.4407

Q: What about the fold_change (period dark, round 2, conc 12.8) of the same compound?
A: -0.3131

Q: And the fold_change (period dark, round 2, conc 16)?
A: -0.104

Q: And the fold_change (period dark, round 2, conc 20)?
A: -0.2326

Q: And the fold_change [5]?
A: -0.1438

Q: And the fold_change [6]?
A: -0.1964

Q: And the fold_change [7]?
A: 0.215

Q: What about the fold_change (period light, round 2, conc 12.8) of the same compound?
A: -0.6609

Q: And the fold_change (period light, round 2, conc 16)?
A: 0.3746

Q: What about the fold_change (period light, round 2, conc 20) of the same compound?
A: 0.3257

Q: With `Cc1ccc2ccc(C)cc2c1` [2,7-dimethylnaphthalene] as the compound, how does the fold_change [1] read?
A: 0.1561

Q: What about the fold_change [2] of the same compound?
A: -0.165

Q: What about the fold_change [3] of the same compound?
A: -0.13

Q: And the fold_change (period dark, round 1, conc 25)?
A: -0.7363

Q: What about the fold_change (period dark, round 1, conc 50) of the same compound?
A: -0.8227

Q: What about the fold_change [5] of the same compound?
A: 0.7628

Q: What about the fold_change [6] of the same compound?
A: 0.4574

Q: And the fold_change [7]?
A: 1.067

Q: And the fold_change (period light, round 1, conc 25)?
A: 1.005

Q: And the fold_change (period light, round 1, conc 50)?
A: 0.2181

Q: `CCc1ccc2ccccc2c1` [2-ethylnaphthalene] was tested. Which fold_change [1] did it give?
A: -0.0209

Q: And the fold_change [2]?
A: -0.02917

Q: And the fold_change [3]?
A: -0.4131

Q: What about the fold_change (period dark, round 1, conc 25) of the same compound?
A: -0.9177

Q: And the fold_change (period dark, round 2, conc 30)?
A: -0.0665

Q: What about the fold_change [4] of the same compound?
A: -0.3116

Q: And the fold_change [5]?
A: -0.3417

Q: And the fold_change [6]?
A: 0.05317

Q: And the fold_change [7]?
A: 0.3434

Q: And the fold_change (period light, round 1, conc 25)?
A: -0.2321

Q: And the fold_change (period light, round 2, conc 30)?
A: 0.3708

Q: What about the fold_change [8] of the same compound?
A: -0.3232

Reference: publication PMC12560828, “Chemical structure drives developmental toxicity of alkyl-substituted naphthalenes in zebrafish” (Environment international, 2025)
